The supplement of paper PMC5412046

Columns and labels:
SB.mhdgc-1 = test: AC50 for growth inhibition (viability) (log10 M); higher = less potent; details: SB.mhdgc-1 (hereditary c.1380delA CDH1 gastric cancer)
Outline: (§1)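 Dosing used a pintool to add 23 nL compound in DMSO to 1536 wells, each with 500 hereditary or sporadic patient-derived gastric cancer cells, across 11 threefold dilutions starting at a final 46 μM. Viability after 48 h was measured by CellTiter-Glo luminescence on a ViewLux. The log half-maximal activity concentration derives from a four-parameter fit of that viability normalised to DMSO, limited to high-quality curve classes.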

SB.msgc-1 = test: as above; details: SB.msgc-1 (sporadic gastric cancer)
Outline: as §1

| Compound | AC50 for growth inhibition (log10 M) (SB.mhdgc-1) | AC50 for growth inhibition (log10 M) (SB.msgc-1) |
| --- | --- | --- |
| O=C(Nc1ncc(SCCN2CCCC2)s1)[C@]1(c2ccc([S+](=O)([O-])C3CC3)cc2)C[C@H]1C1CCCCC1 | -5.03 | -4.78 |
| Cc1ccc(-c2ncn(-c3ccc(Nc4nccc(-c5cccc(N6CCOCC6)c5)n4)cc3)n2)cn1 [SR-3306] | -6.18 | -7.13 |
| O=C(NCc1ccccc1)[C@H](Cc1ccccc1)NC(=O)[C@H]1O[C@@H]1C(=O)NCCc1ccc(O)cc1 [CAA0225] | -6.48 | -6.08 |
| CCOC(=O)N1CCN(/[N+]([O-])=N/Oc2cc(O/N=[N+](\[O-])N3CCN(C(=O)OCC)CC3)c([N+](=O)[O-])cc2[N+](=O)[O-])CC1 [Double JS-K] | -5.03 | -4.63 |
| CN(C)c1ccc(O)c2c1C[C@H]1C[C@H]3[C@H](N(C)C)C(O)=C(C(N)=O)C(=O)[C@@]3(O)C(O)=C1C2=O [Minocycline] | -5.43 | -5.38 |
| CC(C)N(CCCNC(=O)Nc1ccc(C(C)(C)C)cc1)C[C@H]1O[C@@H](n2cc(Br)c3c(N)ncnc32)[C@H](O)[C@@H]1O [SGC0946] | -4.68 | -4.53 |
| CC(C)(C(=O)NCC(F)(F)C(F)(F)F)C(=O)N[C@@H]1C(=O)Nc2ccccc2-c2ccccc21 | -4.83 | -5.23 |
| Nc1nc(F)nc2c1ncn2[C@@H]1O[C@H](CO)[C@@H](O)[C@H]1O [2-Fluoroadenosine] | -6.23 | -6.23 |
| COc1ccc([S+](=O)([O-])Nc2cc(-c3c(O)ccc4ccccc34)c(O)c3ccccc23)cc1 [C-188-9] | -4.73 | -4.73 |
| CO[C@H]1CCC(O[C@H]2C[C@H]([C@]3(C)CC[C@]4(C[C@H](O)[C@@H](C)[C@@H]([C@@H](C)/C=C(\C)C(=O)[C@H](C)C[C@H](C)C(=O)[O][Na])O4)O3)O[C@]3(O[C@@H]([C@H]4O[C@@](O)(CO)[C@H](C)C[C@@H]4C)C[C@@H]3C)[C@@H]2C)O[C@@H]1C (stereo partly drawn) [Nanchangmycin] | -6.83 | -6.68 |
| CCCC1=NC(=C2[N]1NC(=N\C2=O)/C3=CC(=CC=C3OCC)[S+]([O-])(=O)N4CCN(CC)CC4)C [Vardenafil] | -4.73 | -4.83 |
| CCc1cc(Nc2nccc(-c3c(-c4ccc(OC)c(C(=O)Nc5c(F)cccc5F)c4)nc4ccccn34)n2)c(OC)cc1N1CCC(N2CCN([S+](C)(=O)[O-])CC2)CC1 | -7.33 | -5.63 |
| CCCCCCNC(=O)N1\C=C(F)/C(=O)NC1=O [Carmofur] | -6.33 | -5.48 |
| CC(C)C[C@H](NC(=O)c1cc2ccccc2s1)C(=O)N1CCN(C(=O)[C@H](CO)N[S+](=O)([O-])c2ccc(Cl)cc2Cl)CC1 | -4.73 | -4.73 |
| C=CC(=O)Nc1cc2c(Nc3ccc(F)c(Cl)c3)ncnc2cc1OCCCN1CCOCC1 [Canertinib] | -4.73 | -5.18 |
| COC1=CC=CC2=C1C(=NC(=N2)C3=CC=CS3)NN4C(=O)\C=C(C)/C4=O | -5.18 | -4.88 |
| CCN(CC)CCNC(=O)c1ccc2nc(-c3ccccc3)c(-c3ccc(CN4CCC(n5c(=O)[nH]c6ccccc65)CC4)cc3)nc2c1 [Merck-22-6] | -5.63 | -4.88 |
| CNC1CCCN(c2c(F)cc3c(=O)c(C(=O)O)cn(C4CC4)c3c2OC)C1 (stereo not drawn) [Balofloxacin] | -5.63 | -4.83 |
| O=C1c2c(O)ccc(O)c2C(=O)c2c(NCCNCCO)ccc(NCCNCCO)c21 [Mitoxantrone] | -7.13 | -5.88 |
